Tests used:
Assay type in all cases: cell-based
H1299_eGFP cells [1] = assay: Cell viability following CAD incubation (CellTiter GLO)
Protocol: (§1) The silencing potential of siPLK1-NGs was established through evaluating the cell viability. Hereto, we applied the CellTiter GLO® assay (Promega, Belgium) according to the manufacturer's guidelines. Before initiating the assay, the culture plates and reconstituted assay buffer were placed at room temperature for 30 minutes. Next, the culture medium was replaced by 250 μL fresh cell medium and an equal volume of assay buffer was added. To induce complete cell lysis, the plates were shaken during 2 minutes and the signal was allowed to stabilize the following 10 minutes. 100 μL from each well was subsequently transferred to an opaque 96-well plate, which was measured with a GloMax® 96 Microplate Luminometer (Promega, Belgium). Three biological replicates were performed and data are expressed as the mean cell viability±SEM.
Please note that we only applied siCTRL-loaded NGs in this set of experiments. With the interest of evaluating the possible effect of our treatment on cell viability, the CellTiter GLO® assay was performed as described above. Again, three biological replicates were performed and data are expressed as the mean±SEM.

H1299_eGFP cells [2] = assay: Side scatter (cellular granularity) by flow cytometry
Protocol: For silencing experiments, H1299_eGFP cells were seeded in 24 well plates at a density of 35000 cells/well and were allowed to settle overnight. Subsequently, the cells were transfected and treated with small molecular adjuvants as described previously. Note that for every siEGFP or siPLK1 condition an siCTRL sample was included to account for potential off target effects. SiNG-mediated eGFP silencing was determined by flow cytometry. […] The cells were collected, centrifuged during 5 minutes at 300 g, resuspended in 300 μL flow buffer and kept on ice until analysis. For each sample the forward and side scatter as well as the green fluorescent signal were measured for at least 5000 cells.

H1299_eGFP cells [3] = assay: siPLK1-NG silencing evaluated through cell viability (CellTiter GLO)
Protocol: as §1
All previous experiments were performed on the eGFP reporter gene. To evaluate whether our approach also works in a therapeutic setting we applied siRNA against Polo Like Kinase 1 (PLK1). […] To evaluate the PLK1 silencing we evaluated the effect on cell viability since both induction of cell cycle arrest or apoptosis would reduce the number of cells present compared to the untreated control.

H1299_eGFP cells [4] = assay: Transfection with Lipofectamine RNAiMAX or DOTAP-DOPE liposomes, with or without desloratadine, eGFP silencing; settings: 40 μM, 2 h
Protocol: Lipofectamine® RNAiMAX (Invitrogen, Belgium) was applied as prescribed by the manufacturer. In short, equal volumes of RNAiMAX and siRNA dilutions were mixed and allowed to complex during 5 minutes at room temperature. Transfection occurred in Opti-MEM®. According to the guidelines, 5 pmol siRNA/well was applied to obtain optimal transfection efficiencies. To allow comparison with the siNG transfection methods, the RNAiMAX lipoplexes were additionally further diluted to 0.6 pmol siRNA/well. […] Of note, a single biological replicate was performed with three technical replicates and data are represented as the mean±SEM.
DOTAP (2,3-dioleoyloxy-propyl)-trimethylammonium)—DOPE (1,2-dioleoyl-sn-glycero-3-phosphoethanolamine) liposomes (LPS) were prepared via the lipid film hydration method. […]
For silencing experiments, H1299_eGFP cells were seeded in 24 well plates at a density of 35000 cells/well and were allowed to settle overnight. […] SiNG-mediated eGFP silencing was determined by flow cytometry. […] For each sample the forward and side scatter as well as the green fluorescent signal were measured for at least 5000 cells. The samples were excited with the 488 nm laser line and the signal was detected with the 530/30 filter using the FACSCalibur™ flow cytometer (BD Biosciences, Belgium) and BD CellQuest™ acquisition software.

H1299_WT cells = assay: Phospholipidosis detection with LipidTOX Red; settings: 20 h incubation
Protocol: H1299_WT cells were seeded and allowed to settle overnight as detailed previously. Next, the cells were incubated with a mixture of a 1/1000 dilution of the LipidTOX™ red phospholipidosis detection reagent (Thermo Fisher Scientific, USA) and the desired CAD in complete cell medium. Upon 20 hour incubation, the cells were fixed with 4% PFA and stored at 4° C. covered in Vectashield antifade mounting medium containing DAPI. Imaging occurred with a LSCM and a 100× oil immersion objective. DAPI and the LipidTOX™ red phospholipidosis dye were respectively excited with the 408 nm and 561 nm laser lines and the signal intensity was determined with Image J in minimum 30 cells from 5 images per condition.

Clc1ccc2c(c1)CCc1cccnc1C2=C1CCNCC1 [(3) Desloratadine, Desloratadine]
additional cytotoxicity compared to siNGs alone (H1299_eGFP cells [1]): did not cause any additional cytotoxicity
transfected cells remaining viable (H1299_eGFP cells [1]; human, 20 h, 40 μM): ~60%
cellular granularity (SSC) at eGFP readout (H1299_eGFP cells [2]; 40 μM, 2 h incubation): significant though minor augmentation
increase in SSC signal (H1299_eGFP cells [2]; siNG transfection then 40 μM): 1.8 fold
cell viability (H1299_eGFP cells [3]; 1 nM siPLK1-NG, second 40 μM treatment): ~50%
viability at 40 µM (H1299_eGFP cells [3]; 1 nM siPLK1-NG, single 40 μM treatment, 2 h): ~60%
effect on cell viability reduction (H1299_eGFP cells [3]; 10 nM siPLK1-NG, single 2-hour treatment): maximal effect on cell viability reduction
cytosolic siRNA delivery via cationic liposomes (H1299_eGFP cells [4]): not able to enhance cytosolic siRNA delivery
LipidTOX Red phospholipid signal (H1299_WT cells): upregulates the presence of phospholipids in a concentration dependent fashion
